The test system of one assay is B. infantis EVC001. As to the kind of experiment: Activation of B. infantis EVC001 judged from Blon_0881 and Blon_2343 expression against glucose control. The class given is cell-based, Bifidobacterium longum subsp. infantis EVC001. To be noted: 10 g/L activator + 10 g/L glucose, 16 hours. As for the experimental part: (§1) In some embodiments, gene activation relates to Blon_0881 and Blon_2343 and their expression is greater than 1; that is, when the delta delta cycle threshold (2^−ΔΔ^Ct) is greater than 1, 2^−ΔΔ^Ct is calculated using Blon_0393, or another constitutively expressed gene as a reference. The result (activation) is the fold change (2^−ΔΔ^Ct>1) of gene expression, determined based on the 2^−ΔΔ^Ct method. (Livak K and Schmittgen T. (2001). Analysis of relative gene expression data using qRT-PCR and the 2^−ΔΔ^Ct Method. Methods: 25: 402-8). In other embodiments, other genes from Table 1 are used in addition to Blon_0881 and Blon_2343.
(§2) B. infantis EVC001 (Bifidobacterium longum subsp. infantis EVC001 deposited under ATCC Accession No. PTA-125180) was grown under 3 different experimental conditions for 16 hours. The carbon source was added to the initial culture media in the following amounts: 1) 20 g/L glucose; 2) 10 g/L N-acetyl-lactosamine and 10 g/L glucose; and 3) 10 g/L NAG and 10 g/L glucose. The cells were harvested and RNA was extracted to look specifically at gene expression of Blon_0881 and Blon_2343 by qRT-PCR relative to Blon_0393 and expressed as 2^−ΔΔ^Ct. Activation is determined by comparing against the control (glucose). A result greater than 1 is considered activated N-acetyl-lactosamine is an activator of B. infantis EVC001.

The subject of assay [1] is Blon_0881 (glucosamine-6-phosphate isomerase). As to the kind of experiment: qRT-PCR gene expression in B. infantis EVC001, relative to Blon_0393, 2^-ΔΔCt. It counts as cell-based, Bifidobacterium longum subsp. infantis EVC001. The settings on record: 10 g/L activator + 10 g/L glucose, 16 hours; control 20 g/L glucose = 1. As for the experimental part:
as §1, §2

In assay [2] the test system is Blon_2343 (carbohydrate ABC transporter inner membrane protein). The assay is described as above. To be noted: 10 g/L activator + 10 g/L glucose, 16 hours; control 20 g/L glucose = 1. It counts as cell-based, Bifidobacterium longum subsp. infantis EVC001. As for the experimental part:
as §1, §2

Assay [3] relates to fucosidase activity in B. infantis. As to the kind of experiment: Fucosidase activity of dried B. infantis final product (colorimetric nitrophenol release, absorbance at 450 nm). It counts as cell-based, Bifidobacterium infantis. The method, then: FIG. 1. A comparison of fucosidase activity between a final product of B. infantis grown on N-acetylglucosamine (NAG) and a final product of B. infantis grown on glucose/lactose. B. infantis grown on 2.5% w/v NAG is compared to B. infantis grown on glucose/lactose. The absorbance due to the colorometric change resulting from fucosidase activity in the supernatant is measured using a spectrophotometer at 450 nm. […] A fermentation media was made that contained NAG as 100% of the carbon source. This represented 2% of the total media composition (wt/vol). The media also contained sources of nitrogen, minerals, reducing agents and was autoclaved prior to addition of a B. infantis inoculum. The fermentation was carried out under anaerobic conditions for up to 72 hours, until the fermentation reached the stationary phase. The cells were separated from the spent media and concentrated. A cryoprotectant was mixed with the cells to stabilize before freeze-drying. Once dried, the formulation was analyzed for fucosidase activity compared to a dried formulation that had been grown on glucose/lactose. […] The colorimetric difference was confirmed using a spectrophotometer (FIG. 1).

In assay [4] the test system is Blon_2343 and Blon_0881 in B. infantis. In words: qRT-PCR of Blon_2343 and Blon_0881 in B. infantis grown on NAG/glucose, normalized to Blon_0393. It counts as cell-based. To be noted: all tested concentrations of NAG (5-20 g/L with glucose to 20 g/L), harvested after 6 or 12 hours; FIG. 2. The method, then:
FIG. 2. Average relative fold change in gene expression of the genes Blon_2343 and Blon_0881 in B. infantis coding a carbohydrate ABC transporter inner membrane protein and a glucosamine-6-phosphate isomerase or NagB, respectively. Different concentrations of N-acetylglucosamine (NAG) were added to the culture media used to ferment B. infantis. The cells were harvested after 6 hours (A) or 12 hours of growth (B) and RNA was isolated for quantitative reverse transcription PCR (qRT-PCR). Activation was assessed using specific primers for Blon_2343 and Blon_0881 and normalized to a housekeeping gene (Blon_0393). The dashed horizontal line represents no change in expression. […] Cells grown in glucose alone (0 g/L NAG) show no activation.
In some embodiments, gene activation relates to Blon_0881 and Blon_2343 and their expression is greater than 1; that is, when the delta delta cycle threshold (2^−ΔΔ^Ct) is greater than 1, 2^−ΔΔ^Ct is calculated using Blon_0393, or another constitutively expressed gene as a reference. The result (activation) is the fold change (2^−ΔΔ^Ct>1) of gene expression, determined based on the 2^−ΔΔ^Ct method. […]
A series of fermentations were conducted where B. infantis was grown on various concentrations of NAG and glucose shown in Table 5. The cells were grown for a determined period of time (i.e 6 and 12 hours) and spun down. […]
Background: In qPCR the cycle at which signal appears reflects the starting amount.

Assay [5] concerns N-acetylglucosamine-6-phosphate deacetylase gene in L. plantarum. As to the kind of experiment: qRT-PCR of N-acetylglucosamine-6-phosphate deacetylase in Lactobacillus plantarum, normalized to rpoB. It counts as cell-based. The settings on record: for activation of L. plantarum (fold change of N-acetylglucosamine-6-phosphate deacetylase expression): FIG. 3. From the text: FIG. 3. Average relative fold change in the expression of the genes coding for N-acetylglucosamine-6-phosphate deacetylase under different concentrations of N-acetylglucosamine (NAG) added to the culture media for Lactobacillus plantarum. Culture media with different concentrations of NAG (3, 12.5 and 20 g/L) were used to ferment Lactobacillus plantarum. The cells were harvested and RNA was isolated for qRT-PCR. Using specific primers for N-acetylglucosamine-6-phosphate deacetylase, activation was assessed using normalization to a housekeeping gene (rpoB) found in L. plantarum. […] Three different fermentation media compositions were made that contained: 1) 100% NAG (25 g/L); 2) 50% NAG (12.5 g/L) with 50% Lactose (12.5 g/L); and 3) 12.5% NAG (3 g/L) with 87.5% lactose (22 g/L). This represented about 2% of the total media composition (wt/vol). The media also contained sources of nitrogen, minerals, reducing agents and was autoclaved prior to addition of L. plantarum inoculum. The fermentation was carried out under anaerobic conditions for 24 hours until the cells reached the stationary phase. The cells were harvested and RNA extracted (Sambrook, Joseph. & Russell, David W. & Cold Spring Harbor Laboratory. (2012). Molecular cloning: a laboratory manual. Cold Spring Harbor, N.Y: Cold Spring Harbor Laboratory). Specific primers for Lactobacillus were used for the following gene N-acetylglucosamine-6-phosphate deacetylase (activation gene) using normalization to a housekeeping gene (rpoB) found in L. plantarum.

This note sets out measurements from patent publication US20200345055A1, “ACTIVATION OF CONDITIONALLY-EXPRESSED OLIGOSACCHARIDE PATHWAYS DURING FERMENTATION OF PROBIOTIC STRAINS” (EVOLVE BIOSYSTEMS, INC., priority 2018, published 2020).

Entries after “also recorded” stand apart in the source; their conditions may differ.

Take `CC(=O)N[C@H]1C(O)O[C@H](CO)[C@@H](O[C@@H]2O[C@H](CO)[C@H](O)[C@H](O)[C@H]2O)[C@@H]1O` (stereo partly shown) [N-acetyl-lactosamine]: in the assay on B. infantis EVC001, the “Interpretation (activation; result greater than 1 is considered activated)” value is on record as “activator; also recorded: Activated”. In addition, the “Mean 2^-ΔΔCt BLON_0881” value in assay [1] amounted to 10.50. Further, the “Mean 2^-ΔΔCt BLON_2343” value in assay [2] amounted to 6.94.
Take `CC(=O)N[C@H]1C(O)O[C@H](CO)[C@@H](O)[C@@H]1O` (stereo partly shown) [NAG, N-acetylglucosamine]: the “fucosidase activity (absorbance at 450 nm)” value in assay [3] (B. infantis final product grown on 2.5% w/v NAG, compared to cells grown on glucose/lactose, FIG. 1) is given as “had fucosidase activity”. In assay [3] (dried B. infantis grown on NAG as 100% of carbon source, 2% wt/vol of media, up to 72 hours, compared to glucose/lactose), the “release of nitrophenol from aryl-substituted glycoside via fucosidases” value is “release nitrophenol”. Besides, the “Interpretation (activation; result greater than 1 is considered activated)” value in the assay on B. infantis EVC001 is “Activated”. In addition, the “relative fold change in gene expression of Blon_2343 and Blon_0881 (2^ΔΔCt), activation” value in assay [4] is listed as above 1. Besides, the “Mean 2^-ΔΔCt BLON_0881” value in assay [1] came out at 3.41. In addition, the “Mean 2^-ΔΔCt BLON_2343” value in assay [2] came out at 2.10. In addition, the “activation of L. plantarum (fold change of N-acetylglucosamine-6-phosphate deacetylase expression)” value in assay [5] (3 g/L NAG (12.5%) with 22 g/L lactose, 24 hours) is on record as “did not”; in assay [5] (12.5 g/L NAG (50%) with 12.5 g/L lactose, 24 hours), “activated; also recorded: activation”; in assay [5] (20 g/L NAG in culture media) it was “activated”. The “activation of L. plantarum (N-acetylglucosamine-6-phosphate deacetylase expression)” value in assay [5] (100% NAG (25 g/L) as carbon source, 24 hours) is recorded as “activation”.
